Data published in US20070065366A1, “Pharmaceutical formulations comprising a long-acting beta2-agonist for administration by nebulisation” (Chiesi Farmaceutici S.p.A., priority 2005, published 2007).

Assays:
[1] = cited from earlier work
[2] = First stability study of CHF 4226 solutions, pH 3.0 to 6.0 adjusted with different agents (HPLC); type: physicochemical; details: for stability (total impurities/degradation products): compared with not stable, higher than 5% after 1 month accelerated
Procedure: Stability studies in different conditions of pH were carried out.
The amount of the main degradation products and the total impurities and degradation products of CHF 4226 were determined by HPLC.
Total impurities and degradation products comprise the starting impurities present in the drug, the main degradation products and other minor degradation products forming during storage.
In a first study, the effect of the pH in a rather broad range comprised between 3.0 and 6.0 adjusted with different kind of agents was investigated.
The different formulations were stored under long term (25° C., 60% R.H.) and accelerated (40° C., 75% R.H.) conditions for three months.

[3] = Stability of CHF 4226 in aqueous solution, pH 4.0 to 5.5, buffers comprising citric acid at different concentrations (HPLC); type: physicochemical; details: pH interval between 4.0 and 5.0, 40° C., 75% R.H.
Procedure: The chemical stability of CHF 4226 was then investigated in the pH interval comprised from 4.0 to 5.5 adjusted with buffers comprising citric acid at different concentrations.
The different formulations were stored under accelerated conditions (40° C., 75% R.H.) for at least four months.
Various liquid, propellant-free formulations comprising 0.001% w/v CHF 4226 were prepared according the procedure described in the Example 1 except that sodium chloride was not added in order to better appreciate the effect of the buffer concentration on the chemical stability.
The pH was adjusted in the interval comprised between 4.0 and 5.5 with buffers consisting of different relative percentages of the citric acid/sodium citrate couple or the citric acid/dibasic sodium phosphate couple. Each formulation was distributed in 20 ml glass vials.
The stability of the formulations was evaluated under accelerated conditions (40° C., 75% R.H.) for at least four months.
The impurities/degradation products of CHF 4226 were determined by HPLC using the experimental conditions reported in the Example 2.

chemical stability in aqueous solution ([2]; pH 4.5±0.1, citrate buffer about 19 mM, compared with other pH/agents, 25° C./60% R.H. and 40° C./75% R.H., three months)	stability (total impurities/degradation products) ([2]; phosphoric acid, pH 3.0)	stability (total impurities/degradation products) ([2]; phosphoric acid/phosphate buffer, pH 6.0)	chemical stability [3]	Structure (SMILES)	stability in solution ([1]; pH 4.0 to 6.0, acetate or acetate/phosphate buffer, protected from air)	effect of ferric ions on the auto-oxidation rate ([1]; presence of ferric ions, except the solution at pH 6.0 (acetate and phosphate buffer))	pH at which the lowest degradation rate was obtained ([1]; solutions at pH 4.0, 4.5, 5.0, 5.5 and 6.0)
				CCC(NC(C)C)C(O)c1ccc(O)c2[nH]c(=O)ccc12 (stereo not shown) [procaterol]	more stable at more acidic pHs	increased the auto-oxidation rate	4.0
chemically more stable	analogous behavior	analogous behavior	improved	COc1ccc(C[C@@H](C)NC[C@H](O)c2ccc(O)c3[nH]c(=O)ccc23)cc1 [CHF 4226, 8-hydroxy-5-[(1R)-1-hydroxy-2-[[(1R)-2-(4-methoxyphenyl)-1-methylethyl]amino]ethyl]-2(1H)-quinolinone]			
